Row | melting point [°C] | Structure (SMILES)
1 | 124 | COc1ccc2c(c1C=O)OCO2
2 | 198 to 200 | CC(C)=NOCc1nc2c(N)nc3cccnc3c2n1CC(C)(C)O
3 | 53 to 56 | CC(Oc1ccc(Oc2ccc(C(F)(F)F)cc2)cc1)C(=O)OCC#N (stereo not drawn)
4 | 158 to 159 | CC1NC(=O)OC1c1ccc(C(F)(F)F)cc1 (stereo not drawn)
5 | 90 to 91 | CCCCCCCN(Cc1ccc(CCC(C)C)cc1)C(=O)NC1(OC)C=C(C)C=CN1 (stereo not drawn)
6 | 286 | N#Cc1c(N2CCN(C(=O)c3cccs3)CC2)c2sccc2n(Cc2ccc(F)cc2)c1=O
7 | 118 to 119 | O=C1c2cc([N+](=O)[O-])ccc2CC2CCCCCN12 (stereo not drawn)
8 | 143 to 146 | COc1ccc(C(=O)c2cc3cc(Br)ccc3o2)cc1
9 | 151 to 153 | CCOC(=O)C1=Cc2cc(C)c(O)cc2OC1C(F)(F)F (stereo not drawn)
10 | 82 to 85 | C#CCN(C(=O)c1cnccc1C(F)(F)F)S(=O)(=O)c1cccc(Cl)c1
11 | 155 | COc1cc(C)nc(NC(=O)NS(=O)(=O)c2cc([N+](=O)[O-])cs2)n1
12 | 208 to 210 | O=C(NO)c1ccc2c(c1)CN(C(=O)c1cc3ccccc3cn1)C2
13 | 190 to 192 | O=Cc1ccc(O)c(NC(=O)CCl)c1
14 | 97 | Cc1nc(C(=O)c2ccc(Cl)cc2)sc1C
15 | 131 to 133 | COc1cc(OC)cc(C(C)CCCc2ccncc2)c1 (stereo not drawn)
16 | 94 to 96 | O=C1OC(CCCCN2CCN(c3ncccn3)CC2)CN1c1ccccc1 (stereo not drawn)
17 | 108 to 109 | Cc1ccc(S(=O)(=O)C(=[N+]=[N-])S(C)(=O)=O)cc1
18 | 158 to 159 | CCOC(=O)Cn1c(=O)n(-c2ccccc2Cl)c(=O)c2c(C)c(C(=O)OCC)c(C)cc21
19 | 188 | CC1=C(C(=O)OCCOc2ccc(C(=O)c3ccccc3)c(O)c2)CC(C(=O)OCCOc2ccc(C(=O)c3ccccc3)c(O)c2)=C(C)N1
20 | 85 to 86 | CN(C)c1ccc(S(=O)c2ccccc2)cc1N (stereo not drawn)
21 | 254 to 257 | CC12CCC3c4ccc(O)cc4CC(O)C3C1CCC2O (stereo not drawn)
22 | 228 to 230 | COC(=O)C(C)(C)c1ccc(C(=O)Nc2cn3cc(C)ccc3n2)cc1
23 | 113 | C#CCN(C(=O)c1ccco1)c1c(C)cccc1C
24 | 128 to 129 | COC(=O)N1Cc2c(O)noc2C(C)C1 (racemic)
25 | 87 to 89 | CCOC(=O)OC1=C(c2c(C)cc(C)cc2C)C(=O)SC12CCN(OC)CC2
26 | 80 to 82 | CCOC(=O)C1=C(C)NC(C)=C(C(=O)OCCN2CCN(C(c3ccccc3)c3ccccc3)CC2)C1c1cccc([N+](=O)[O-])c1 (stereo not drawn)

Row | melting point [°C] | Structure (SMILES)
27 | 103 to 106 | Cc1ccc(N2CCCN(C(=O)OC(C)(C)C)CC2)cc1[N+](=O)[O-]
28 | 283 to 287 | COC(=O)c1cccc2c1CN(c1c(F)cc3c(=O)c(C(=O)O)cn(-c4ccc(F)cc4)c3c1F)C2
29 | 279 to 283 | Oc1cc2[nH]c3ccccc3c2cc1O
30 | > 250 | CCOCc1nc2c(N)nc3cc(-c4cn[nH]c4)ccc3c2n1CC(C)(C)O
31 | 208 to 209 | COc1ccc(CNc2nnc(Cl)c3cc(Cl)c(Cl)cc23)cc1Cl
32 | 80 to 81 | CCCCCCCCCCCCCCNC(=O)c1cnccn1
33 | 200 | O=C(O)CS(=O)(=O)CCCCCn1nc(-c2ccccc2)c(-c2ccccc2)c1-c1ccccc1
34 | 164 to 168 | Cc1nc(N2CCc3ccccc3CC2)c(C#N)c(=O)n1CCO
35 | 97 to 98 | CON=C(C(=O)O)c1cccc(OC)c1
36 | 113 to 115 | CCOC(=O)C=Cc1ccc2c(c1)CC(CNS(=O)(=O)c1ccc(Cl)cc1)C2 (stereo not drawn)
37 | 163 | O=C(O)COc1ccc(C(O)c2cccs2)c(Cl)c1Cl (stereo not drawn)
38 | 72 to 74 | FC(F)(F)c1cc(C(F)(F)F)cc(P(=S)(S)c2cc(C(F)(F)F)cc(C(F)(F)F)c2)c1
39 | 128 to 131 | CCCc1cc2c(=O)cc(C(=O)O)[nH]c2cc1OCCCOc1c(CCC)cc(C(C)=O)c(O)c1CCC
40 | 201 to 202 | CCc1noc(C2=C(C)NC(C)=C(C(=O)OCCOC)C2c2cc(Cl)cc(Cl)c2)n1 (stereo not drawn)
41 | 205 to 206 | COc1ccccc1CNC(=O)c1c(-c2ccc(C)cc2)c2cccnc2c(=O)n1CCCCO
42 | 64 to 68 | Cc1cc(CC2SCNC2=O)cc(C(C)(C)C)c1O (stereo not drawn)
43 | 130 to 132 | COc1cc2c(cc1Cl)C(O)Cc1ccccc1S2 (stereo not drawn)
44 | 192 to 194 | CCOC(=O)N1C(=O)NC(=O)C12C(=O)N(Cc1ccc(Cl)c(Cl)c1)c1ccccc12 (stereo not drawn)
45 | 254 to 256 | COc1cc(C(=O)O)ccc1Cn1ncc2ccc(NC(=O)CC3CCCC3)cc21
46 | 102 to 103 | CSc1ccccc1CNC(=O)c1ccc2cnccc2n1
47 | 146 to 147 | CC1(C)OCC(Cc2ccc(C=Cc3ccc([N+](=O)[O-])cc3)cc2)O1 (stereo not drawn)
48 | 86 to 87 | CC(C)S(=O)(=O)NCC(C)(F)c1ccc(-c2cccc3c2CC(=O)N3)cc1 (stereo not drawn)
49 | 68 to 71 | COc1ccc2c(c1)CCC(=Cc1ccc(OCCCN(C)C)cc1)C2=O
50 | 165 to 167 | O=C1CC2CCSc3sc(CCO)cc3C2=NN1 (stereo not drawn)
51 | 85 to 87 | CCOC(=O)CCC(=O)c1c(COC(C)=O)c(COC(C)=O)cc2cc(OC)c(OC)cc12
52 | 328 to 335 | O=S1(=O)CCN(c2nc3c(-c4nc(C5CC5)no4)ncn3c3ccccc23)CC1

Row | melting point [°C] | Structure (SMILES)
53 | 115 to 116 | CC1(C)OC(c2ccc(S(C)(=O)=O)cc2)=C(c2cccc(C(F)(F)F)c2)C1=O
54 | 238 to 240 | CC1Sc2c(C(=O)O)c(=O)c3cc(F)c(N4CCC(N)C4)cc3n21 (stereo not drawn)
55 | 244 to 246 | Cc1nc2c(c3c1[nH]c1ccc(Cl)cc13)C(=O)CC(C)(C)C2
56 | 179 to 180 | S=C(Nc1ccc(Cl)cc1)Nc1ncccc1OCc1c(Cl)cccc1Cl
57 | 105 to 109 | CCc1cc2c(cc1CC)C(=O)C(O)=CC2=O
58 | 245 | Cc1ncc2c(c1O)COC2(C)c1ccccc1 (stereo not drawn)
59 | 132 to 134 | CC1(C)OCC(C(N)=O)CO1
60 | 260 to 262 | Oc1nccc2ccncc12
61 | 167 to 168 | Cn1cc(C2CCC(=O)C2)c2cc(C#N)ccc21 (stereo not drawn)
62 | 232 to 233 | NC1(C(=O)O)CC(OC(=O)Nc2ccccc2F)C2C(C(=O)O)C21 (stereo not drawn)
63 | 221 to 222 | CN1C(=O)C(C)(C)C(=O)N(C)c2cc(N)ccc21
64 | 200 to 202 | O=C(CCCc1ccccc1)c1c(O)c2cccnc2n(-c2ccccc2)c1=O
65 | 139 to 140 | CC(=O)N1C(=O)C(C(=O)c2cccs2)c2ccccc21 (stereo not drawn)
66 | 215 | CS(=O)c1cc(O)ccc1-c1nc2cnccc2[nH]1 (stereo not drawn)
67 | 92 to 93 | O=C(CCCCCNC(=O)CCCc1ccccc1)NO
68 | 175 to 178 | COc1cc(OC)cc(-c2ncn(C)c2-c2ccc3c(c2)NCCO3)c1
69 | 48 to 49 | CCC(=O)NCCSC(=O)CC
70 | 97 to 99 | CCN(C)c1ccc2c(c1)CN(c1cccc(Br)c1COC(C)=O)C2=O
71 | 167 to 168 | CNCc1cccc(COc2nc(Cl)cnc2NS(=O)(=O)c2cccc(Cl)c2Cl)c1
72 | 218 to 221 | CN1CCN(c2cccc(Oc3cc(=O)[nH]c4ccccc34)c2)CC1
73 | 208 to 209 | O=C(O)Cc1nc(-c2ccc(F)cc2)oc1-c1ccoc1
74 | 100 to 102 | COC(=O)c1ccc(Cl)c(Cl)c1NS(C)(=O)=O
75 | 162 to 163 | CC1(C)N=C(c2ccccc2)C(c2ccc(N)cc2)O1 (stereo not drawn)
76 | 148 to 149 | Fc1c(F)c(Br)c2nsnc2c1Br
77 | 85 to 87 | COC(=O)c1[nH]c(C)c(C)c1OCC1CO1 (stereo not drawn)
78 | 199 to 200 | COC(=O)C(=O)c1cn(C)c2cc(-c3ccc(C(F)(F)F)cc3)ccc12

Row | melting point [°C] | Structure (SMILES)
79 | 116 to 117 | COc1ccc(-c2cccc3c2OC(COS(=O)(=O)c2ccc(C)cc2)C3)cc1 (stereo not drawn)
80 | 198 to 199 | C=CCN1Cc2nc3c(cnn3CCCl)c(N)c2C1=O
81 | 65 | CC(C)(C)NC(=O)C(=O)C(C)(C)C
82 | 179 | CC(C)(C)NC(=O)c1ccc(S(=O)(=O)Cl)cc1
83 | 217 | O=C(Nc1cc(S(=O)(=O)N(CCO)CCO)sc1Cl)c1cnn2c(C(F)(F)F)cc(-c3ccc(C(F)(F)F)cc3)nc12
84 | 167 to 168 | COc1cc(Nc2ncc(C#N)c(-c3ccc(C(C)(C)N)cc3)n2)cc(OC)c1OC
85 | 176 to 177 | CCCCN1C(=O)C2=C(c3ccc(Cl)cc3)N(CCCC)C(=O)C2=C1c1ccc(Cl)cc1
86 | 75.7 to 78.8 | SC1CCn2c(CCc3ccccc3)nc3cccc1c32 (stereo not drawn)
87 | 258 to 260 | O=C(NC1CCCC1)c1ccc(-c2ccc3c(c2)CCN(CCN2CCCC2)C3=O)cc1
88 | 176 to 178 | O=c1cc(CN2CCCC2)[nH]c(=O)[nH]1
89 | 110 to 111 | CC1OC(O)CC(NC(=O)C(F)(F)F)C1(C)O (stereo not drawn)
90 | 157 to 159 | C=CCn1c(NCCCOc2ccccc2)nc(N2CCc3ccccc3CC2)c(C#N)c1=O
91 | 132 to 135 | CN(C)C(N)=Nc1cc(C(F)(F)F)ccc1N1CCOCC1
92 | 97 to 98 | COc1ccc(C(=O)c2ccccc2NC(=O)CNC(=O)OCc2ccccc2)cc1
93 | 258 | Cc1cccc2nc(Cn3cnc4c(N)ncnc43)n(-c3ccccc3C(C)C)c(=O)c12
94 | 219 to 220 | NC(=O)/C=C/c1ccc(C(c2cc(F)ccc2F)S(=O)(=O)c2ccc(Cl)cc2)nc1 (stereo not drawn)
95 | 121 to 122 | CC(=O)OCCOC(C)n1cc(F)c(=O)[nH]c1=O (stereo not drawn)
96 | 152 to 155 | CCCC(CCC)c1nc(-c2ccncc2)c(-c2ccc(Cl)cc2)n1CC
97 | 80 to 81 | C(=C1CNCCN1)c1ccccc1
98 | 118 to 119 | O=S(=O)(NCC1CCOCC1)c1ccc(Cl)cc1
99 | 40 to 44 | O=C(Nc1ccccn1)C(CC1CCCC1)c1ccc(C(F)(F)F)c(F)c1 (stereo not drawn)
100 | 105 to 107 | C#Cc1ccc2c(c1)C(C)(C)CCS2=O (stereo not drawn)
101 | 181 to 184 | CCN1C(=O)Cc2cc3c(cc21)C(=O)CO3

Row | Structure (SMILES) | melting point [°C]
102 | Cc1nc2cc(NC(=O)c3cc4cc(F)ncc4n3Cc3cccc(F)c3)ccc2s1 | 193 to 195
103 | O=[N+]([O-])c1cc2nc(O)c(O)nc2c2nonc12 | > 300
